According to US20050112573A1, “Method of detecting toxic substance” (priority 2001, published 2005):

Tested on: yeast genes (level of expressed mRNA)
Assay: DNA chip analysis of expressed mRNA of yeast genes after 2 h culture with a toxic chemical substance
Format: cell-based, Saccharomyces cerevisiae S288C
Conditions: for The level of expressed mRNA in the presence of chemical substance/ (ratio to absence of chemical substance): stress protein genes, DNA chip
Description: Yeast (Saccharomyces cerevtisiae S288C (α SUC2mal mel gap2 CUP1)) were cultured at 25° C. on YPD medium (yeast extract 1%, polypepton 2%, glucose 2%). One of toxic chemical substances was added to the cell at logarithmic growth phase, and the cell was further cultured for two hours. Cell was cultured without any chemical substance in the same condition, and was used as control. Concentrations of the chemical substances were defined to inhibit the growth of the yeast but not lead to death.
After the completion of cultivation, the culture was centrifuged to collect the cells. To the cells, sodium acetate buffer (50 mM sodium acetate, 10 mM EDTA, 1% SDS) was added, and the mixture was shaken at 65° C. for five minutes, followed by returning to room temperature, and obtaining the supernatant, which procedure was repeated two times. To the supernatant, ½ amount of a solution of phenol/chloroform was added, and the mixture was centrifuged to give a supernatant, which was added with an equal amount of chloroform, and the mixture was centrifuged to give a supernatant. To the supernatant, an equal amount of isopropanol containing 0.3 M sodium acetate was added, and the mixture was allowed to stand at room temperature for 30 minutes, after which the mixture was centrifuged to give a sediment of the whole RNAs. Seventy % ethanol was added to the sediment, and the mixture was again centrifuged to give a sediment, which was then dried and dissolved in water. mRNA was isolated from the whole RNAs as followings. In view of the fact that a poly A chain is attached to the 3′ terminus of mRNA, a polynucleotide having a poly T structure which was immobilized on the surface of latex beads was used to trap the mRNA, and then the mRNA was washed and eluted with spine column (Oligotex-dT30<Super>mRNA Purification Kit, Takara). Reverse transcription of the mRNA was conducted with a reverse transcriptase (Super Script II Reverse Transcriptase; catalogue No. 18064-014, GibcoBRL) using fluorescence-labeled nucleotides to give cDNAs that were introduced with Cy3-dUTP or Cy5-dUTP during the reverse transcription.
The labeled cDNAs were dissolved in TE buffer (10 mM Tris-HCl/1 mM EDTA, pH8.0), and the solution was dropped on the DNA chip containing the whole genes of yeast (DNA Chip Research Inc. Japan) so that the cDNAs were hybridized on the DNA chip at 65° C. for over 12 hours. The fluoresces intensity of the DNA chip was read with a scanner, and the ratio relative to the fluorescence intensity resulting from the absence of chemical substance was estimated as the following, which is shown in Tables 1 to 9: [formula]
In the Tables, “Intensity” indicated in the rightmost column is a value of the level of expressed mRNA of each gene in control cells as divided by the average level of the expressions of the whole genes.

## CCCCC[C@H](O)CC(=O)CCc1ccc(O)c(OC)c1 [(13), gingerol]
Yeast gene YIL140W
  The level of expressed mRNA in the presence of chemical substance/The level of expressed mRNA in the absence of chemical substance: 0.5
Yeast gene YJL070C, ratio of DNA chip fluorescence intensity to that without chemical substance
  The level of expressed mRNA in the presence of chemical substance/ (in its absence), gene YJL070C: 1.8
Yeast gene YJL073W
  The level of expressed mRNA in the presence of chemical substance/The level of expressed mRNA in the absence of chemical substance: 1.6
Yeast gene YJL089W
  The level of expressed mRNA in the presence of chemical substance/The level of expressed mRNA in the absence of chemical substance: 1.8
Yeast gene YJL096W, mitochondria-located protein genes, 2 h culture with chemical
  The level of expressed mRNA in the presence of chemical substance/ (ratio to absence), gene YJL096W: 0.7
Yeast gene YJL116C
  The level of expressed mRNA in the presence of chemical substance/The level of expressed mRNA in the absence of chemical substance: 4.3
Yeast gene YJL158C
  The level of expressed mRNA in the presence of chemical substance/ (ratio to absence of chemical substance): 0.4
Yeast gene YJL167W, ratio of DNA chip fluorescence intensity to that without chemical substance
  The level of expressed mRNA in the presence of chemical substance/ (in its absence), gene YJL167W: 0.9
Yeast gene YJL180C, mitochondria-located protein genes, 2 h culture with chemical
  The level of expressed mRNA in the presence of chemical substance/ (ratio to absence), gene YJL180C: 1.2
Yeast gene YJL216C, ratio of DNA chip fluorescence intensity to that without chemical substance
  The level of expressed mRNA in the presence of chemical substance/ (in its absence), gene YJL216C: 1.1
Yeast gene YJR004C
  The level of expressed mRNA in the presence of chemical substance/The level of expressed mRNA in the absence of chemical substance: 0.3
Yeast gene YJR086W
  The level of expressed mRNA in the presence of chemical substance/The level of expressed mRNA in the absence of chemical substance: 0.9
Yeast gene YJR090C
  The level of expressed mRNA in the presence of chemical substance/ (ratio to absence of chemical substance): 2.2
Yeast gene YKL008C
  The level of expressed mRNA in the presence of chemical substance/The level of expressed mRNA in the absence of chemical substance: 1.7
Yeast gene YKL013C
  The level of expressed mRNA in the presence of chemical substance/The level of expressed mRNA in the absence of chemical substance: 1.3
Yeast gene YKL039W
  The level of expressed mRNA in the presence of chemical substance/The level of expressed mRNA in the absence of chemical substance: 1.9
Yeast gene YKL041W
  The level of expressed mRNA in the presence of chemical substance/The level of expressed mRNA in the absence of chemical substance: 1.3
Yeast gene YKL096W
  The level of expressed mRNA in the presence of chemical substance/The level of expressed mRNA in the absence of chemical substance: 0.1
Yeast gene YKL164C
  The level of expressed mRNA in the presence of chemical substance/ (ratio to absence of chemical substance): 0.9
Yeast gene YKL165C
  The level of expressed mRNA in the presence of chemical substance/The level of expressed mRNA in the absence of chemical substance: 3.2
Yeast gene YKL193C
  The level of expressed mRNA in the presence of chemical substance/The level of expressed mRNA in the absence of chemical substance: 2.1
Yeast gene YKR009C, ratio of DNA chip fluorescence intensity to that without chemical substance
  The level of expressed mRNA in the presence of chemical substance/ (in its absence), gene YKR009C: 1.8
Yeast gene YKR034W, ratio of DNA chip fluorescence intensity to that without chemical substance
  The level of expressed mRNA in the presence of chemical substance/ (in its absence), gene YKR034W: 1.2
Yeast gene YKR053C
  The level of expressed mRNA in the presence of chemical substance/ (ratio to absence of chemical substance): 0.7
Yeast gene YKR058W, energy system protein genes, 2 h culture with the chemical, ratio to control without chemical
  The level of expressed mRNA in the presence of chemical substance/ in its absence, gene YKR058W: 0.7
Yeast gene YLR006C, ratio of DNA chip fluorescence intensity to that without chemical substance
  The level of expressed mRNA in the presence of chemical substance/ (in its absence), gene YLR006C: 0.8
Yeast gene YLR006C
  The level of expressed mRNA in the presence of chemical substance/ (ratio to absence of chemical substance): 0.8
Yeast gene YLR120C
  The level of expressed mRNA in the presence of chemical substance/The level of expressed mRNA in the absence of chemical substance: 4.8
Yeast gene YLR136C
  The level of expressed mRNA in the presence of chemical substance/The level of expressed mRNA in the absence of chemical substance: 2.9
Yeast gene YLR178C
  The level of expressed mRNA in the presence of chemical substance/The level of expressed mRNA in the absence of chemical substance: 7.5
Yeast gene YLR250W
  The level of expressed mRNA in the presence of chemical substance/The level of expressed mRNA in the absence of chemical substance: 1.2
Yeast gene YLR295C, energy system protein genes, 2 h culture with the chemical, ratio to control without chemical
  The level of expressed mRNA in the presence of chemical substance/ in its absence, gene YLR295C: 0.8
Yeast gene YLR295C, mitochondria-located protein genes, 2 h culture with chemical
  The level of expressed mRNA in the presence of chemical substance/ (ratio to absence), gene YLR295C: 0.8
Yeast gene YLR327C
  The level of expressed mRNA in the presence of chemical substance/The level of expressed mRNA in the absence of chemical substance: 2.8
Yeast gene YLR351C, ratio of DNA chip fluorescence intensity to that without chemical substance
  The level of expressed mRNA in the presence of chemical substance/ (in its absence), gene YLR351C: 0.9
Yeast gene YLR356W
  The level of expressed mRNA in the presence of chemical substance/The level of expressed mRNA in the absence of chemical substance: 2.5
Yeast gene YLR362W
  The level of expressed mRNA in the presence of chemical substance/The level of expressed mRNA in the absence of chemical substance: 2.4
Yeast gene YLR375W, ratio of DNA chip fluorescence intensity to that without chemical substance
  The level of expressed mRNA in the presence of chemical substance/ (in its absence), gene YLR375W: 1.6
Yeast gene YLR391W
  The level of expressed mRNA in the presence of chemical substance/The level of expressed mRNA in the absence of chemical substance: 0.9
Yeast gene YLR429W
  The level of expressed mRNA in the presence of chemical substance/The level of expressed mRNA in the absence of chemical substance: 2.3
Yeast gene YML129C, energy system protein genes, 2 h culture with the chemical, ratio to control without chemical
  The level of expressed mRNA in the presence of chemical substance/ in its absence, gene YML129C: 1.0
Yeast gene YML129C, mitochondria-located protein genes, 2 h culture with chemical
  The level of expressed mRNA in the presence of chemical substance/ (ratio to absence), gene YML129C: 1.0
Yeast gene YMR004W
  The level of expressed mRNA in the presence of chemical substance/The level of expressed mRNA in the absence of chemical substance: 2.2
Yeast gene YMR023C, mitochondria-located protein genes, 2 h culture with chemical
  The level of expressed mRNA in the presence of chemical substance/ (ratio to absence), gene YMR023C: 1.1
Yeast gene YMR094W
  The level of expressed mRNA in the presence of chemical substance/The level of expressed mRNA in the absence of chemical substance: 1.4
Yeast gene YMR104C
  The level of expressed mRNA in the presence of chemical substance/The level of expressed mRNA in the absence of chemical substance: 1.5
Yeast gene YMR186W
  The level of expressed mRNA in the presence of chemical substance/ (ratio to absence of chemical substance): 2.4
Yeast gene YMR219W
  The level of expressed mRNA in the presence of chemical substance/The level of expressed mRNA in the absence of chemical substance: 2.1
Yeast gene YMR226C
  The level of expressed mRNA in the presence of chemical substance/The level of expressed mRNA in the absence of chemical substance: 1.6
Yeast gene YMR267W, energy system protein genes, 2 h culture with the chemical, ratio to control without chemical
  The level of expressed mRNA in the presence of chemical substance/ in its absence, gene YMR267W: 0.7
Yeast gene YMR267W, mitochondria-located protein genes, 2 h culture with chemical
  The level of expressed mRNA in the presence of chemical substance/ (ratio to absence), gene YMR267W: 0.7
Yeast gene YMR267W, ratio of DNA chip fluorescence intensity to that without chemical substance
  The level of expressed mRNA in the presence of chemical substance/ in its absence, gene YMR267W: 0.7
Yeast gene YMR275C
  The level of expressed mRNA in the presence of chemical substance/The level of expressed mRNA in the absence of chemical substance: 2.1
Yeast gene YMR276W
  The level of expressed mRNA in the presence of chemical substance/The level of expressed mRNA in the absence of chemical substance: 1.9
Yeast gene YMR278W, ratio of DNA chip fluorescence intensity to that without chemical substance
  The level of expressed mRNA in the presence of chemical substance/ (in its absence), gene YMR278W: 2.5
Yeast gene YMR293C, ratio of DNA chip fluorescence intensity to that without chemical substance
  The level of expressed mRNA in the presence of chemical substance/ (in its absence), gene YMR293C: 0.8
Yeast gene YMR314W
  The level of expressed mRNA in the presence of chemical substance/The level of expressed mRNA in the absence of chemical substance: 2.6
